Laboratory results as given in patent US20180319810A1, “SUBSTITUTED BRIDGED UREA ANALOGS AS SIRTUIN MODULATORS” (GlaxoSmithKline Intellectual Property (No.2) Limited, priority 2014, published 2018).

Target: T1, SIRT1 (Homo sapiens, UniProt Q96EB6)
T1 sequence (Q96EB6 1-747): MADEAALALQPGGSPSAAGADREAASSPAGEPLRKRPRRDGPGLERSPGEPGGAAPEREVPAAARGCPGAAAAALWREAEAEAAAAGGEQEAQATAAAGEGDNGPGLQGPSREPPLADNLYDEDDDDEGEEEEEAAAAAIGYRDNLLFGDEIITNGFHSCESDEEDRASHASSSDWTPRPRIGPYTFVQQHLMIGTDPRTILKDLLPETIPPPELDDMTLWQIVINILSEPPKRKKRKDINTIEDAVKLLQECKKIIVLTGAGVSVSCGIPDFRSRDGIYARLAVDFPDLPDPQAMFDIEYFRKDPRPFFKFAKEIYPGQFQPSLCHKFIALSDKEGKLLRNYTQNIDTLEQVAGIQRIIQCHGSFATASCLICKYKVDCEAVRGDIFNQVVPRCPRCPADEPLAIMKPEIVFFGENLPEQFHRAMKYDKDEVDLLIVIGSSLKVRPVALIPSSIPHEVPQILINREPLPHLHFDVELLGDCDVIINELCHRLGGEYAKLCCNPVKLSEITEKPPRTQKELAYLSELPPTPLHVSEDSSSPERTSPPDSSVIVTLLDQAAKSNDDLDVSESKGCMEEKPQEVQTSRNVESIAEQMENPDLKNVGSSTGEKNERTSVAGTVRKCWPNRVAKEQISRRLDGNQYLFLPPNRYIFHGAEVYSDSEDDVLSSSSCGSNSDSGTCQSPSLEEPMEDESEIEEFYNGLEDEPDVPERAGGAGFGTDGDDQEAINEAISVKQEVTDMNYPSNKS
Experiment: Trp mass spectrometry assay of SIRT1 activation
Type: biochemical
Conditions: Trp peptide Ac-R-H-K-K(Ac)-W-NH2 0.5 μM, 120 μM βNAD+, 10 nM SIRT1, 25 min, 25° C.
Excerpt: Mass spectrometry based assays were used to identify modulators of SIRT1 activity. […] The peptide was labeled with the fluorophore 5TMR (excitation 540 nm/emission 580 nm) at the C-terminus. The sequence of the peptide substrate was based on p53 with several modifications. In addition, the methionine residue naturally present in the sequence was replaced with the norleucine because the methionine may be susceptible to oxidation during synthesis and purification.
The Trp mass spectrometry assay was conducted as follows. […] The SIRT1 protein was obtained by cloning the SirT1 gene into a T7-promoter containing vector, which was then expressed in BL21(DE3) bacterial cells and purified as described in further detail below. Test compound was added at varying concentrations to this reaction mixture and the resulting reactions were monitored. After the 25 minute incubation with SIRT1, 10 μL of 10% formic acid was added to stop the reaction. The resulting reactions were sealed and frozen for later mass spec analysis. The relative SIRT1 activity was then determined by measuring the amount of O-acetyl-ADP-ribose (OAADPR) formed (or, alternatively, the amount of deacetylated Trp peptide generated) by the NAD-dependent sirtuin deacetylation reaction in the presence of varying concentrations of the test compound versus control reactions lacking the test compound.
The degree to which the test agent activated deacetylation by SIRT1 was expressed as EC1.5 (i.e., the concentration of compound required to increase SIRT1 activity by 50% over the control lacking test compound), and Percent Maximum Activation (i.e., the maximum activity relative to control (100%) obtained for the test compound).
This time point was the same as that used for test compounds and, within the linear range, the endpoint represents a change in velocity.
For the above assay, SIRT1 protein was expressed and purified as follows. The SirT1 gene was cloned into a T7-promoter containing vector and transformed into BL21(DE3). The protein was expressed by induction with 1 mM IPTG as an N-terminal His-tag fusion protein at 18° C. overnight and harvested at 30,000×g. Cells were lysed with lysozyme in lysis buffer (50 mM Tris-HCl, 2 mM Tris[2-carboxyethyl]phosphine (TCEP), 10 μM ZnCl2, 200 mM NaCl) and further treated with sonication for 10 min for complete lysis. The protein was purified over a Ni-NTA column (Amersham) and fractions containing pure protein were pooled, concentrated and run over a sizing column (Sephadex S200 26/60 global). The peak containing soluble protein was collected and run on an Ion-exchange column (MonoQ). Gradient elution (200 mM-500 mM NaCl) yielded pure protein. This protein was concentrated and dialyzed against dialysis buffer (20 mM Tris-HCl, 2 mM TCEP) overnight. The protein was aliquoted and frozen at −80° C. until further use.
“NT” means not tested; “ND” means not determinable.

O=C(Nc1ccnc(OC2CCOCC2)n1)N1c2nc(-c3cccc(C(F)(F)F)c3)ncc2N2CC[C@H]1C2 [Example 19, (8S)—N-(2-((tetrahydro-2H-pyran-4-yl)oxy)pyrimidin-4-yl)-2-(3-(trifluoromethyl)phenyl)-7,8-dihydro-5,8-methanopyrimido[4,5-b][1,4]diazepine-9(6H)-carboxamide]
TRP Activity (EC1.5, concentration of compound required to increase SIRT1 activity by 50% over control): B (EC1.5 1-25 μM) | TRP MAX RESP (percent maximum fold activation relative to control): A (Fold activation ≥150%)

Cc1cc(-c2ncc3c(n2)N(C(=O)Nc2cccnc2)[C@H]2CCCN3C2)ccn1 [Example 114, (9S)-2-(2-methylpyridin-4-yl)-N-(pyridin-3-yl)-8,9-dihydro-6H-5,9-methanopyrimido[4,5-b][1,4]diazocine-10(7H)-carboxamide]
TRP Activity (EC1.5, concentration of compound required to increase SIRT1 activity by 50% over control): B (EC1.5 1-25 μM) | TRP MAX RESP (percent maximum fold activation relative to control): A (Fold activation ≥150%)

O=C(Nc1cc(F)cc(-c2cccnc2)c1)N1c2nc(-c3cccc(C(F)(F)F)c3)ncc2N2CC[C@H]1C2 [Example 27, (8S)—N-(3-fluoro-5-(pyridin-3-yl)phenyl)-2-(3-(trifluoromethyl)phenyl)-7,8-dihydro-5,8-methanopyrimido[4,5-b][1,4]diazepine-9(6H)-carboxamide]
TRP Activity (EC1.5, concentration of compound required to increase SIRT1 activity by 50% over control): A (EC1.5<1 μM) | TRP MAX RESP (percent maximum fold activation relative to control): A (Fold activation ≥150%)

O=C(Nc1ccccn1)N1c2nc(-c3cccc(C(F)(F)F)c3)ncc2N2CC[C@H]1C2 [Example 3, (8S)—N-(pyridin-2-yl)-2-(3-(trifluoromethyl)phenyl)-7,8-dihydro-5,8-methano pyrimido[4,5-b][1,4]diazepine-9(6H)-carboxamide]
TRP MAX RESP (percent maximum fold activation relative to control): A (Fold activation ≥150%)

Cc1nc(-c2cccc(C(F)(F)F)c2)nc2c1N1CC[C@@H](C1)N2C(=O)Nc1ccc(OC[C@H](O)CO)cn1 [Example 48, (8S)—N-(5-((R)-2,3-dihydroxypropoxy)pyridin-2-yl)-4-methyl-2-(3-(trifluoromethyl)phenyl)-7,8-dihydro-5,8-methanopyrimido[4,5-b][1,4]diazepine-9(6H)-carboxamide]
TRP Activity (EC1.5, concentration of compound required to increase SIRT1 activity by 50% over control): B (EC1.5 1-25 μM) | TRP MAX RESP (percent maximum fold activation relative to control): A (Fold activation ≥150%)

Cc1nc(-c2cccc(C(F)(F)F)c2)nc2c1N1CC[C@@H](C1)N2C(=O)Nc1nccc(OC[C@@H](O)CO)n1 [Example 47, (8S)—N-(4-((S)-2,3-dihydroxypropoxy)pyrimidin-2-yl)-4-methyl-2-(3-(trifluoromethyl)phenyl)-7,8-dihydro-5,8-methanopyrimido[4,5-b][1,4]diazepine-9(6H)-carboxamide]
TRP Activity (EC1.5, concentration of compound required to increase SIRT1 activity by 50% over control): B (EC1.5 1-25 μM) | TRP MAX RESP (percent maximum fold activation relative to control): A (Fold activation ≥150%)

Cc1cc(-c2nc(C)c3c(n2)N(C(=O)Nc2ccccn2)[C@H]2CCN3C2)ccn1 [Example 10, (8S)-4-methyl-2-(2-methylpyridin-4-yl)-N-(pyridin-2-yl)-7,8-dihydro-5,8-methanopyrimido[4,5-b][1,4]diazepine-9(6H)-carboxamide]
TRP Activity (EC1.5, concentration of compound required to increase SIRT1 activity by 50% over control): B (EC1.5 1-25 μM) | TRP MAX RESP (percent maximum fold activation relative to control): A (Fold activation ≥150%)

Cc1nc(-c2cccc(C(F)(F)F)c2)nc2c1N1CCC[C@@H](C1)N2C(=O)Nc1nccc(OC[C@H](O)CO)n1 [Example 111, (9S)—N-(4-((R)-2,3-dihydroxypropoxy)pyrimidin-2-yl)-4-methyl-2-(3-(trifluoromethyl)phenyl)-8,9-dihydro-6H-5,9-methanopyrimido[4,5-b][1,4]diazocine-10(7H)-carboxamide]
TRP Activity (EC1.5, concentration of compound required to increase SIRT1 activity by 50% over control): A (EC1.5<1 μM) | TRP MAX RESP (percent maximum fold activation relative to control): A (Fold activation ≥150%)

O=C(Nc1cncc(OC[C@@H](O)CO)c1)N1c2nc(-c3cccc(C(F)(F)F)c3)ncc2N2CC[C@H]1C2 [Example 24, (8S)—N-(5-((S)-2,3-dihydroxypropoxy)pyridin-3-yl)-2-(3-(trifluoromethyl)phenyl)-7,8-dihydro-5,8-methanopyrimido[4,5-b][1,4]diazepine-9(6H)-carboxamide]
TRP Activity (EC1.5, concentration of compound required to increase SIRT1 activity by 50% over control): B (EC1.5 1-25 μM) | TRP MAX RESP (percent maximum fold activation relative to control): A (Fold activation ≥150%)

O=C(NCC(F)(F)F)c1ncc2c(n1)N(C(=O)Nc1ccccn1)[C@H]1CCN2C1 [Example 58, (8S)—N9-(pyridin-2-yl)-N2-(2,2,2-trifluoroethyl)-7,8-dihydro-5,8-methano pyrimido[4,5-b][1,4]diazepine-2,9(6H)-dicarboxamide]
TRP Activity (EC1.5, concentration of compound required to increase SIRT1 activity by 50% over control): B (EC1.5 1-25 μM) | TRP MAX RESP (percent maximum fold activation relative to control): A (Fold activation ≥150%)

O=C(Nc1cc(OC[C@H](O)CO)ccn1)N1c2nc(-c3cccc(C(F)(F)F)c3)ncc2N2CC[C@H]1C2 [Example 33, (8S)—N-(4-((R)-2,3-dihydroxypropoxy)pyridin-2-yl)-2-(3-(trifluoromethyl)phenyl)-7,8-dihydro-5,8-methanopyrimido[4,5-b][1,4]diazepine-9(6H)-carboxamide]
TRP Activity (EC1.5, concentration of compound required to increase SIRT1 activity by 50% over control): B (EC1.5 1-25 μM) | TRP MAX RESP (percent maximum fold activation relative to control): A (Fold activation ≥150%)

Cl.O=C(Nc1ccnc(OC[C@H](O)CO)c1)N1c2nc(-c3cccc(C(F)(F)F)c3)ncc2N2CC[C@H]1C2 [Example 34, (8S)—N-(2-((R)-2,3-dihydroxypropoxy)pyridin-4-yl)-2-(3-(trifluoromethyl)phenyl)-7,8-dihydro-5,8-methanopyrimido[4,5-b][1,4]diazepine-9(6H)-carboxamide hydrochloride]
TRP Activity (EC1.5, concentration of compound required to increase SIRT1 activity by 50% over control): A (EC1.5<1 μM) | TRP MAX RESP (percent maximum fold activation relative to control): A (Fold activation ≥150%)

Cc1cc(-c2ncc3c(n2)N(C(=O)Nc2ccccn2)[C@H]2CCN3C2)ccn1 [Example 8, (8S)-2-(2-methylpyridin-4-yl)-N-(pyridin-2-yl)-7,8-dihydro-5,8-methanopyrimido[4,5-b][1,4]diazepine-9(6H)-carboxamide]
TRP Activity (EC1.5, concentration of compound required to increase SIRT1 activity by 50% over control): B (EC1.5 1-25 μM)

O=C(Nc1ccnc(OC[C@@H](O)CO)c1)N1c2nc(-c3cccc(C(F)(F)F)c3)ncc2N2CC[C@H]1C2 [Example 32, (8S)—N-(2-((S)-2,3-dihydroxypropoxy)pyridin-4-yl)-2-(3-(trifluoromethyl)phenyl)-7,8-dihydro-5,8-methanopyrimido[4,5-b][1,4]diazepine-9(6H)-carboxamide]
TRP Activity (EC1.5, concentration of compound required to increase SIRT1 activity by 50% over control): A (EC1.5<1 μM) | TRP MAX RESP (percent maximum fold activation relative to control): A (Fold activation ≥150%)
